Data as given in publication PMC9060753, “pDobz/pDobb protected diaminodiacid as a novel building block for peptide disulfide-bond mimic synthesis” (RSC Advances, 2019).
Bridge positions count the residues as written; N and C are the ends. Square brackets hold non-standard residues; d marks the D form. Triazole bridges read from a SMILES are 1,4-linked. Peptide text beside a SMILES is read from it. Dap(N3) = [N-]=[N+]=NC[C@H](N)C(=O)O; Pra = C#CC[C@H](N)C(=O)O

Experiments:
[1] = pH 7.4
[2] = target: α-chymotrypsin (Bos taurus, UniProt P00766); conditions: pH 7.4

Row | Structure (SMILES) | Reduction stability in aqueous DTT solution (percent residual peptide) [1] | Difference of protease stability versus native model peptide contryphan-Vn [2] | Protease stability under α-chymotrypsin treatment (percent residual peptide) [2]
1 | NCCCC[C@@H]1NC(=O)[C@@H](Cc2c[nH]c3ccccc23)NC(=O)[C@@H]2CCCN2C(=O)[C@@H](NC(=O)[C@H](CC(=O)O)NC(=O)CN)Cn2cc(nn2)C[C@@H](C(N)=O)NC(=O)[C@H](Cc2c[nH]c3ccccc23)NC(=O)[C@@H]2CCCN2C1=O [Compound 14, [Ala1(&^1),Ala7(&^2)]contryphan-Vn[1,9][(&^1-1,4-[1,2,3]-triazolyl-&^2)]] (H-GD[Dap(N3)]P[dW]KPW[Pra]-NH2; triazole 3-9) | remained intact | No significant differences | degraded completely
2 | NCCCC[C@@H]1NC(=O)[C@@H](Cc2c[nH]c3ccccc23)NC(=O)[C@@H]2CCCN2C(=O)[C@@H](NC(=O)[C@H](CC(=O)O)NC(=O)CN)CSSC[C@@H](C(N)=O)NC(=O)[C@H](Cc2c[nH]c3ccccc23)NC(=O)[C@@H]2CCCN2C1=O [contryphan-Vn, Contryphan-Vn[1,9], reference compound] (H-GDCP[dW]KPWC-NH2; disulfide 3-9) | completely reduced | – | degraded completely
